Active and inactive are the calls of the source.
Experiments:
[1] = A cytotoxicity screen of small molecule inhibitors of the PhoP region in Salmonella typhi identified in the primary screen. [Related pubchem assays: 1850, 1864, 1985 ]; format: functional
Ephrin type-A receptor 4 = Ephrin type-A receptor 4 (Mus musculus, UniProt Q03137); assay: EphA4 ligand-binding antagonists – biochemical, colorimetric, mouse EphA4, primary screen (AID 689); format: functional
CHO = CHO cell viability loss, potency – luminescence, cytotoxicity control for TLR9-MyD88 binding inhibitor project, dose response (AID 588339); format: functional, cell-based, hamster; details: Cricetulus griseus;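 note: CHO cells stably coexpressing TLR9 and MyD88 fusions from primary screen; compound exposure lasted 48 hours before viability readout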
[2] = biological target: T1, Corticotropin-releasing factor receptor 2/Corticotropin-releasing factor-binding protein (Homo sapiens, UniProt P24387+Q13324); assay: activators of CRF receptor 2 with binding protein – uHTS hits, confirmation (AID 602473); format: functional; details: read-out: EC50_Mean
T1 sequence (Q13324 whole entry): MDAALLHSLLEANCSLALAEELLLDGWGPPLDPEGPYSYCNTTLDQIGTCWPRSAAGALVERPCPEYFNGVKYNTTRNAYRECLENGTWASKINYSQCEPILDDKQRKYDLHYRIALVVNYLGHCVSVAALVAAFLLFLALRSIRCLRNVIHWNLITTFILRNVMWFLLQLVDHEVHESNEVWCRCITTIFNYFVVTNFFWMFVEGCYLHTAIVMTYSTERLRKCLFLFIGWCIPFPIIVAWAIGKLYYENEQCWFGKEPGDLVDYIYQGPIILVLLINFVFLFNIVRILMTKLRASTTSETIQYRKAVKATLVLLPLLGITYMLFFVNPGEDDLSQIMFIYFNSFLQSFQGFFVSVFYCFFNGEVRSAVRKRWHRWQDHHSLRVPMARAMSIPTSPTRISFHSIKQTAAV
T1 sequence (P24387 whole entry): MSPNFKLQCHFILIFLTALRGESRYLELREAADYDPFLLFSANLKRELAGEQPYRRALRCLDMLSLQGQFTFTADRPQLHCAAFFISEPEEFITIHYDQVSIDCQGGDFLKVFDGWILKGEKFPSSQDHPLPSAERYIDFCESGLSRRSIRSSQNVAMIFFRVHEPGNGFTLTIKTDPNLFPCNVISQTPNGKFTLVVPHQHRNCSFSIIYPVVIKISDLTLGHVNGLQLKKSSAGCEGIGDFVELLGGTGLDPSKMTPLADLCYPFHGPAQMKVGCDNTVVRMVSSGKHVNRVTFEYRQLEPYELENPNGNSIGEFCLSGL

[3] = viability inhibitors of stage V gametocytes – luminescence, dose response (AID 1117278); format: functional, cell-based;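 note: gametocytes exposed to compound for 24 hours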
[4] = viability loss in human Jurkat cells – cell-based, luminescence, cytotoxicity control for P. falciparum gametocyte viability project, dose response (AID 1117277); format: functional;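 note: potency reflects loss of cellular ATP meaning fewer viable cells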
[5] = biological target: Disintegrin and metalloproteinase domain-containing protein 17 (Homo sapiens, UniProt P78536); assay: exosite inhibitors of ADAM17, dose response, biochemical (AID 743260)
Disintegrin and metalloproteinase domain-containing protein 17, sequence (P78536 whole entry, the tested form may be a part): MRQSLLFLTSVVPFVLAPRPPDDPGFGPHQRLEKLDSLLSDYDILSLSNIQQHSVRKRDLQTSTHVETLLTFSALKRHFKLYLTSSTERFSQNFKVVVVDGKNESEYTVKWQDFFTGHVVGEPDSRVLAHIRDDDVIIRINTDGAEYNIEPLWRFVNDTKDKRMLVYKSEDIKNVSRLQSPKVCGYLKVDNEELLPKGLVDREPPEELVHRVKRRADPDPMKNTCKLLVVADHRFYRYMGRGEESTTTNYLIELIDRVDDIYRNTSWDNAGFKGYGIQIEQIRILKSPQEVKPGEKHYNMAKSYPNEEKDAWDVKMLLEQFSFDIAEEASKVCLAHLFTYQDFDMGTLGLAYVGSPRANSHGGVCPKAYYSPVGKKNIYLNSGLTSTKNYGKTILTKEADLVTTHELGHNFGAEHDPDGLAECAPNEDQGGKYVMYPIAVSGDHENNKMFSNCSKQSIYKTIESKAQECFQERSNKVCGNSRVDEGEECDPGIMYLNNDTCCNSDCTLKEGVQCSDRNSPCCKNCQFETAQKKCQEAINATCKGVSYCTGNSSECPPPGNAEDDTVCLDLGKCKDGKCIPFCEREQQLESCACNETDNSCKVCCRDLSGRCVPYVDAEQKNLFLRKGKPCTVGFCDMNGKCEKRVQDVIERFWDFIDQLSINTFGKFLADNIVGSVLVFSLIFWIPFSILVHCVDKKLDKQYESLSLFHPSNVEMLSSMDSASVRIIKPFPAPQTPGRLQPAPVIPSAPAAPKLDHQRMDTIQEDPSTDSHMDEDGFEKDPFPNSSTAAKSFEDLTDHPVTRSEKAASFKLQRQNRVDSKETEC

[6] = inhibition of ADAM10 peptide cleavage – biochemical, FRET peptide substrate, recombinant human ADAM10, selectivity assay for ADAM17 exosite inhibitor project, dose response (AID 743259);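 note: ADAM10 enzyme cleaving a FRET peptide substrate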
[7] = biological target: T2, Heat shock factor protein 1 (Mus musculus, UniProt P38532); assay: decrease of HSF1-responsive luciferase luminescence – cell-based, NIH3T3, dose retest, confirmation (AID 2382); format: functional;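 note: NIH3T3 fibroblasts with HSF1-driven luciferase reporter stressed by proteasome inhibitor MG132; luminescence from HSF1-driven luciferase expression after 8 hours of MG132 stress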
T2 sequence (P38532 whole entry): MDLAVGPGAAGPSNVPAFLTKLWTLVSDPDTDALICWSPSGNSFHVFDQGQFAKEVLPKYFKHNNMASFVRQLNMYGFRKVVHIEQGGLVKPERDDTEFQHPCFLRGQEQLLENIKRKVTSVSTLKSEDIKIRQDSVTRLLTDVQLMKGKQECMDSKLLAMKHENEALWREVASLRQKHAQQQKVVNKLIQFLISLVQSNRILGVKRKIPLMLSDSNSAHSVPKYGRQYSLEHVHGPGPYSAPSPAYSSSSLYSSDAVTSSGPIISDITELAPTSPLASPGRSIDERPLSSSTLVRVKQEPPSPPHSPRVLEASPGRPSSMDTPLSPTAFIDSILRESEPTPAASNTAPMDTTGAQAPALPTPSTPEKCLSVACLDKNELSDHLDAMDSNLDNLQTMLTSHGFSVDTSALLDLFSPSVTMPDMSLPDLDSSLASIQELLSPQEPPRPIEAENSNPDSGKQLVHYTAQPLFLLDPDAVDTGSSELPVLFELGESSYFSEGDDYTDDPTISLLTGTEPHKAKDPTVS

[8] = Trypanosoma cruzi growth suppression in host cells – NIH3T3 host cells, beta-gal luminescence, confirmation (AID 2044); format: functional, cell-based;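 note: intracellular parasites grown in NIH/3T3 mouse fibroblasts as host cells; luminescent beta-galactosidase reporter signal from transgenic T. cruzi replicating inside host cells; inhibitors lower the luminescence signal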
[9] = NIH3T3 cell viability loss – ATP luminescence, mouse fibroblasts, counter-screen, dose response (AID 2010); format: functional, cell-based;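 note: cells exposed to compound for about 90 hours before reading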
[10] = THP-1 cell cytotoxicity, dose response, cytotoxicity control for non-replicating M. tuberculosis project (AID 489025); format: functional
cells = format: functional
[11] = biological target: T3, Replicative DNA helicase DnaB (Mycobacterium tuberculosis, UniProt P9WMR3); assay: DnaB intein splicing inhibitors, dose response, biochemical, cell-free fluorescence (AID 449749); format: functional
T3 sequence (P9WMR3 whole entry): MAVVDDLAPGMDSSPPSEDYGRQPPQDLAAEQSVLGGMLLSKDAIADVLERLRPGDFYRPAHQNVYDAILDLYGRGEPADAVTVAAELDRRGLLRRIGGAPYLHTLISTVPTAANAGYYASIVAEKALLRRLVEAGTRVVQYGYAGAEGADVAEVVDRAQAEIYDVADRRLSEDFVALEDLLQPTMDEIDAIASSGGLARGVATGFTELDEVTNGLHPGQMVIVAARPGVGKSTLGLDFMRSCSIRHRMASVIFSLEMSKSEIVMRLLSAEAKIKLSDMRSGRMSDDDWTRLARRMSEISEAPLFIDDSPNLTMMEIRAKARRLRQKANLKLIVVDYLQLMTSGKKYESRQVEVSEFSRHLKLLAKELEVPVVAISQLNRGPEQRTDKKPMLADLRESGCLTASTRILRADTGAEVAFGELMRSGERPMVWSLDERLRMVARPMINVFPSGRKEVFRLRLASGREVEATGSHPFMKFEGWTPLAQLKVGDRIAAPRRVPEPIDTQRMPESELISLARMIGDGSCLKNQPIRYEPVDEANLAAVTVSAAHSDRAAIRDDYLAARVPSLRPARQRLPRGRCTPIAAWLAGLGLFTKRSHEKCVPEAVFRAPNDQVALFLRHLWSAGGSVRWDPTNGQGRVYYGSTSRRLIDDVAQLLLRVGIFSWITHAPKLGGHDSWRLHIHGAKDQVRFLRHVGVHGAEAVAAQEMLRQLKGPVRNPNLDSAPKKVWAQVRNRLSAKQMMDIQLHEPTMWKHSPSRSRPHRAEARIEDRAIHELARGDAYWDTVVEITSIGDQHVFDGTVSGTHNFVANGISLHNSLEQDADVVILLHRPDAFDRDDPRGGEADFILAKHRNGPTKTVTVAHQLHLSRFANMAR

Protein RecA = biological target: T4, Protein RecA (Mycobacterium tuberculosis, UniProt P9WHJ3); assay: Fluorescence Cell-Free Homogeneous Dose Retest to Identify Inhibitors of RecA-Intein Splicing Activity. [Related pubchem assays (depositor defined):AID2097, AID2223, AID489010, AID492950]; format: functional
T4 sequence (P9WHJ3 whole entry): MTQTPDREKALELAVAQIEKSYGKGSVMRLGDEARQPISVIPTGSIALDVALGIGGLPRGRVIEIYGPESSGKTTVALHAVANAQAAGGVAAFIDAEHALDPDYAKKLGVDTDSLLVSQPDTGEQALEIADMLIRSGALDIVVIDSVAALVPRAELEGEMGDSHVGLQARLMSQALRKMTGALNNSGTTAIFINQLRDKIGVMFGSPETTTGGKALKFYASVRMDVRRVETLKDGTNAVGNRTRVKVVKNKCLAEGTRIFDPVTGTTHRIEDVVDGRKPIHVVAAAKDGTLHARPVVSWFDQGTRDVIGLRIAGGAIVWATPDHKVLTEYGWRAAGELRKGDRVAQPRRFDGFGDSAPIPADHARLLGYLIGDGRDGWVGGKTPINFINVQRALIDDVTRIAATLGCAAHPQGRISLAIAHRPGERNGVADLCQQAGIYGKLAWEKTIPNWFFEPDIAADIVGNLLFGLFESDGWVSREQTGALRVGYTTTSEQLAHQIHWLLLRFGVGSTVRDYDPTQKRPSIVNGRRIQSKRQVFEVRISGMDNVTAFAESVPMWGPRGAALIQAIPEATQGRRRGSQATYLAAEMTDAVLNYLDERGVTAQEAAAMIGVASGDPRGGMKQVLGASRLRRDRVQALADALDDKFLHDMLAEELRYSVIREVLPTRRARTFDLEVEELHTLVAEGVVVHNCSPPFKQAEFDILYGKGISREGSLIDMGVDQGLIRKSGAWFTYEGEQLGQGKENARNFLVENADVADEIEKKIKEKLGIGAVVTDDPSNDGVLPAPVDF

Beta Lactamase = Beta Lactamase (Pseudomonas aeruginosa, UniProt Q932Y6); assay: BLA reporter interference, concentration series – BLA reporter cells, FRET fluorescence, artefact control for TLR9-MyD88 binding inhibitor project, dose response (AID 588341); format: cell-based;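 note: cell based assay in CHO-K1 cells stably expressing beta-lactamase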
Beta Lactamase, sequence (Q932Y6 whole entry): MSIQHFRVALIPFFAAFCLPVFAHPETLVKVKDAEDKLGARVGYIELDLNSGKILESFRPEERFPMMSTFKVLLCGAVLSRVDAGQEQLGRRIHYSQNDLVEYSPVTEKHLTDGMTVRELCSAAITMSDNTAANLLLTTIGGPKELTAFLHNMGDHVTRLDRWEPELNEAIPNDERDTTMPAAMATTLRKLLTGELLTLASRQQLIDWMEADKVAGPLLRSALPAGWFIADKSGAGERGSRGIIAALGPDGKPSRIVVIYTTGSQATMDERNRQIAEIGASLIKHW

Paired box protein Pax-8 = Paired box protein Pax-8 (Homo sapiens, UniProt Q06710); assay: PAX8 transcriptional activity inhibition in RMG-I – RMG-I cells, luciferase, cherry-pick, dose response (AID 687027); format: functional, cell-based;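 note: luciferase reporter driven by Pax8 target thyroperoxidase promoter measured by SteadyGlo luminescence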
Paired box protein Pax-8, sequence (Q06710 whole entry): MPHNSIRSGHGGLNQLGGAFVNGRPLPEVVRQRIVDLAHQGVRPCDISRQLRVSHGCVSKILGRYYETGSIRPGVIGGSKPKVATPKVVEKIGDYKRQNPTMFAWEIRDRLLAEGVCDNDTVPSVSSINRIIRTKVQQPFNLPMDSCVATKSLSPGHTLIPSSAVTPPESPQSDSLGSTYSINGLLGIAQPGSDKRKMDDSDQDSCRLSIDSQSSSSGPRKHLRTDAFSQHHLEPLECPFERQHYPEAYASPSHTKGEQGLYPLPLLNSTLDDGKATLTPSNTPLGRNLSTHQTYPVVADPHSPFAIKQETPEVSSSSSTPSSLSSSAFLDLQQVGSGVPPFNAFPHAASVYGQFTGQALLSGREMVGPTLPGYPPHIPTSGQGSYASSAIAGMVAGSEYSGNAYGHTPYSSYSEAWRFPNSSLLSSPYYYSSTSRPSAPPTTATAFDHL

[12] = general cell-killing toxicity readout – plate reader, dry powder samples, cytotoxicity control for PAX8 inhibitor project, dose response (AID 743021); format: functional, cell-based
[13] = biological target: T5, Mannose-6-phosphate isomerase (Homo sapiens, UniProt P34949); assay: MPI inhibition at elevated mannose 6-phosphate – biochemical, fluorescence intensity, high mannose 6-phosphate, primary screen (AID 1220)
T5 sequence (P34949 whole entry): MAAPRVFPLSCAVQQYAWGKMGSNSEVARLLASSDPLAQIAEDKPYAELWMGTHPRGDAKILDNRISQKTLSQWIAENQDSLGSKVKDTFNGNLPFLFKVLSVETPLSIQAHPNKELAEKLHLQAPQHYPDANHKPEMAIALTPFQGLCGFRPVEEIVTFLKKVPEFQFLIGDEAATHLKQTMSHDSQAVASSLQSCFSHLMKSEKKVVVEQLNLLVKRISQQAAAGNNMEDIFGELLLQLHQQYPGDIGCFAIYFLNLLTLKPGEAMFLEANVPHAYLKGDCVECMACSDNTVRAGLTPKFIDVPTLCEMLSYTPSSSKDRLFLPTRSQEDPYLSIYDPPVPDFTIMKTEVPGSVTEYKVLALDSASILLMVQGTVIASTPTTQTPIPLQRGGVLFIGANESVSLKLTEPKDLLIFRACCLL

Ephrin type-A receptor 4, sequence (Q03137 whole entry, the tested form may be a part): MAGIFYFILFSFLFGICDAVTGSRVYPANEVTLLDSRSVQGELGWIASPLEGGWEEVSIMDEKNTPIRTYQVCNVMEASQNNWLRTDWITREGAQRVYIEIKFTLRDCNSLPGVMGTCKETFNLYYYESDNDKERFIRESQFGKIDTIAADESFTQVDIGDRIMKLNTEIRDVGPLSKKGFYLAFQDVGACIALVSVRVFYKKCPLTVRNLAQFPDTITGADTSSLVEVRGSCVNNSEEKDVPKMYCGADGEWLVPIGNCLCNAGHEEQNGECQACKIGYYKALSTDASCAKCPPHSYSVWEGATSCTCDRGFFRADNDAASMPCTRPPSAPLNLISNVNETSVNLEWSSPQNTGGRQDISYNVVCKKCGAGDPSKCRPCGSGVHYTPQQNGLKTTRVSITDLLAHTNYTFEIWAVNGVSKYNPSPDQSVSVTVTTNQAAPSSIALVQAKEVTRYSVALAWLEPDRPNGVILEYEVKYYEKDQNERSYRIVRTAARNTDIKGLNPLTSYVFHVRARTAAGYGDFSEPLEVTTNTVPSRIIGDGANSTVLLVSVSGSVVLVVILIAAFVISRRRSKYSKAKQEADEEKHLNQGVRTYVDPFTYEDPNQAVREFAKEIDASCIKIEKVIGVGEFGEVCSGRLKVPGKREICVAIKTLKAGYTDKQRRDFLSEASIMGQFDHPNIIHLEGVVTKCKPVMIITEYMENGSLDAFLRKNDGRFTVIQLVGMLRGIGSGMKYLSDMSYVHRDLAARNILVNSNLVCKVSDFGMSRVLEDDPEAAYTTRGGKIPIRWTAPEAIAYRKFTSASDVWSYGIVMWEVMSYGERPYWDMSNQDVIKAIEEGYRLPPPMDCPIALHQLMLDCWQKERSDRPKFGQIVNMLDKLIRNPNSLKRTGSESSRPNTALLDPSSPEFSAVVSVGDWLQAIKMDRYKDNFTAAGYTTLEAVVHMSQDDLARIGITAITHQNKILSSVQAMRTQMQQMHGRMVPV

In the case of `Cc1cc(C)nc(SCC(=O)NCc2ccco2)n1`, the EC50 [1] is reported as > 50 µM (active).

In the case of `CSc1ccccc1/N=C/c1nc(-c2ccccc2)oc1O`, the IC50 (Ephrin type-A receptor 4) is reported as 37.6 µM (active).

In the case of `O=[N+]([O-])c1ccc(N(c2ccccc2)c2ccccc2)cc1`, the IC50 (Ephrin type-A receptor 4) is reported as 10.8 µM (active), the IC50 (CHO) is reported as > 49.7 µM (inactive) and the EC50 [2] is reported as 24.3 µM (active).

In the case of `Cn1cc([N+](=O)[O-])c(C(=O)Nc2ccc3c(c2)OCCO3)n1`, the IC50 (Ephrin type-A receptor 4) is reported as > 100 µM (not active).

With `Cc1sc2c(=O)n3c(nc2c1C(=O)NC1CCCCC1)CCCCC3` the IC50 [3] was > 109 µM (inactive) and the IC50 [4] was > 83.3 µM (inactive).

In the case of `Cc1noc(C)c1C(=O)OCC(=O)Nc1ccccc1Oc1ccccc1`, the IC50 [5] is reported as > 69.5 µM (inactive) and the IC50 [6] is reported as > 69.5 µM (inactive).

For `CCS(=O)(=O)c1ncc(Cl)c(C(=O)Nc2ccc(C)cc2)n1`, the EC50 [7] was 5.18 µM (inconclusive), the EC50 [8] was 2.31 µM (active) and the EC50 [9] was 4.9 µM (active). The CC50 [10] was 21 µM (active), the IC50 (cells) was 5.21 µM (active) and the IC50 (CHO) was 3.98 µM (active). For the same compound, the AC50 [11] was 5.56 µM (active), the EC50 (Protein RecA) was 6.94 µM (active) and the IC50 (Beta Lactamase) was 7.65 µM (active). The AC50 (Paired box protein Pax-8) was 17.2 µM (active) and the AC50 [12] was 34.9 µM (active).

For `COc1ccc(NS(=O)(=O)c2ccc(OC)c(NC(=O)CCC3CCCC3)c2)cc1`, the IC50 [5] was > 69.5 µM (inactive) and the IC50 [6] was > 69.5 µM (inactive).

With `COCCO/C(O)=C1\C(C)=NC2(O)c3ccccc3C(=O)C12O` (centres undefined) the IC50 [13] was > 50 µM (not active).
